Calls of active or inactive are those of the source. How the calls were made is not given here.

The source of these data is PubChem BioAssay AID1259407 (Chemical Carcinogenesis Research Information System (CCRIS), 2018).

The test system of this data set is CCRIS mutagenicity, Ames/micronucleus/aberration tests. As to the kind of experiment: CCRIS mutagenicity studies.
Setting [1] is: Test System: AMES SALMONELLA TYPHIMURIUM, Strain/Indicator: TA98, Metabolic Activation: NONE, Method: STANDARD PLATE.
[2] abbreviates: Test System: AMES SALMONELLA TYPHIMURIUM, Strain/Indicator: TA98, Metabolic Activation: RAT, LIVER, S-9, AROCLOR 1254, Method: STANDARD PLATE.
Setting [3] is: Test System: AMES SALMONELLA TYPHIMURIUM, Strain/Indicator: TA100, Metabolic Activation: NONE, Method: STANDARD PLATE.
The mark [4] stands for this setting: Test System: AMES SALMONELLA TYPHIMURIUM, Strain/Indicator: TA100, Metabolic Activation: RAT, LIVER, S-9, AROCLOR 1254, Method: STANDARD PLATE.
Where [5] appears, read: Test System: AMES SALMONELLA TYPHIMURIUM, Strain/Indicator: TA1535, Metabolic Activation: NONE, Method: STANDARD PLATE.
Where [6] appears, read: Test System: AMES SALMONELLA TYPHIMURIUM, Strain/Indicator: TA1538, Metabolic Activation: NONE, Method: STANDARD PLATE.

As for `O=C1Nc2ccc([N+](=O)[O-])cc2C1=O`, the mutagenic call (Test System: AMES SALMONELLA TYPHIMURIUM, Strain/Indicator: TA98, Metabolic Activation: HAMSTER, LIVER, S-9, AROCLOR 1254, Method: STANDARD PLATE) is “active; positive”; the mutagenic call under setting [1] is “active; positive”; the mutagenic call under setting [2] was “active; positive”; the mutagenic call (Test System: AMES SALMONELLA TYPHIMURIUM, Strain/Indicator: TA100, Metabolic Activation: HAMSTER, LIVER, S-9, AROCLOR 1254, Method: STANDARD PLATE) was “active; positive”; the mutagenic call under setting [3] was “active; positive”; the mutagenic call under setting [4] was “active; positive”. Further, the mutagenic call (Test System: MOUSE LYMPHOMA, Strain/Indicator: L5178Y (TK+/TK-), Metabolic Activation: NONE, Method: SUSPENSION/PLATE) was “active; positive. reevaluation of results: positive” and the mutagenic call (Test System: MOUSE LYMPHOMA, Strain/Indicator: L5178Y (TK+/TK-), Metabolic Activation: RAT, LIVER, S-9, AROCLOR 1254, Method: SUSPENSION/PLATE) is “active; positive. reevaluation of results: equivocal”.
Consider `Cc1ccc(C2CO2)cc1C` (stereo unspecified), for which the mutagenic call reads like this: (Test System: E. COLI, Strain/Indicator: WP2, Metabolic Activation: NONE, Method: STANDARD PLATE) “active; positive”; (Test System: E. COLI, Strain/Indicator: WP2 UVRA, Metabolic Activation: NONE, Method: STANDARD PLATE) “active; positive”.
As to `CCCCC(CC)COC(=O)COc1ccc(Cl)cc1Cl` (stereo unspecified), the mutagenic call is “inactive; negative” under setting [1]; “inactive; negative” (Test System: AMES SALMONELLA TYPHIMURIUM, Strain/Indicator: TA98, Metabolic Activation: RAT LIVER S-9, AROCLOR 1254, 10%, Method: STANDARD PLATE); “inactive; negative” under setting [3]; “inactive; negative” (Test System: AMES SALMONELLA TYPHIMURIUM, Strain/Indicator: TA100, Metabolic Activation: RAT LIVER S-9, AROCLOR 1254, 10%, Method: STANDARD PLATE); “inactive; negative” under setting [5]; “inactive; negative” (Test System: AMES SALMONELLA TYPHIMURIUM, Strain/Indicator: TA1535, Metabolic Activation: RAT LIVER S-9, AROCLOR 1254, 10%, Method: STANDARD PLATE). Also, the mutagenic call runs as follows: (Test System: AMES SALMONELLA TYPHIMURIUM, Strain/Indicator: TA1537, Metabolic Activation: NONE, Method: STANDARD PLATE) “inactive; negative”; (Test System: AMES SALMONELLA TYPHIMURIUM, Strain/Indicator: TA1537, Metabolic Activation: RAT LIVER S-9, AROCLOR 1254, 10%, Method: STANDARD PLATE) “inactive; negative”; under setting [6], “inactive; negative”; (Test System: AMES SALMONELLA TYPHIMURIUM, Strain/Indicator: TA1538, Metabolic Activation: RAT LIVER S-9, AROCLOR 1254, 10%, Method: STANDARD PLATE) “inactive; negative”; (Test System: UDS RAT HEPATOCYTES, Strain/Indicator: THYMIDINE INCORPORATION, Metabolic Activation: NONE, Method: AUTORADIOGRAPHY) “inactive; negative”.
For `CN(CC(O)CO)N=O` (stereo unspecified), the mutagenic call was “active; positive” (Test System: AMES SALMONELLA TYPHIMURIUM, Strain/Indicator: TA100, Metabolic Activation: HAMSTER, LIVER, S-9, 3-METHYLCHOLANTHRENE, Method: PREINCUBATION); “active; positive” (Test System: AMES SALMONELLA TYPHIMURIUM, Strain/Indicator: TA100, Metabolic Activation: HAMSTER, LIVER, S-9, PHENOBARBITAL, Method: PREINCUBATION); “active; positive” (Test System: AMES SALMONELLA TYPHIMURIUM, Strain/Indicator: TA100, Metabolic Activation: HAMSTER, LIVER, S-9, Method: PREINCUBATION); “active; positive” (Test System: AMES SALMONELLA TYPHIMURIUM, Strain/Indicator: TA100, Metabolic Activation: MOUSE, LIVER, S-9, 3-METHYLCHOLANTHRENE, Method: PREINCUBATION); “active; positive” (Test System: AMES SALMONELLA TYPHIMURIUM, Strain/Indicator: TA100, Metabolic Activation: MOUSE, LIVER, S-9, PHENOBARBITAL, Method: PREINCUBATION); “active; positive” (Test System: AMES SALMONELLA TYPHIMURIUM, Strain/Indicator: TA100, Metabolic Activation: MOUSE, LIVER, S-9, Method: PREINCUBATION). The mutagenic call by setting is: (Test System: AMES SALMONELLA TYPHIMURIUM, Strain/Indicator: TA100, Metabolic Activation: NONE, Method: PREINCUBATION) “inactive; negative”; (Test System: AMES SALMONELLA TYPHIMURIUM, Strain/Indicator: TA100, Method: PREINCUBATION) “active; positive”.
Take `Nc1ncnc2c1ncn2[C@@H]1O[C@H](CO)[C@@H](O)[C@H]1O`: the mutagenic call was “inactive; negative” (Test System: AMES SALMONELLA TYPHIMURIUM, Strain/Indicator: TA97, Metabolic Activation: NONE, Method: STANDARD PLATE); “inactive; negative” (Test System: AMES SALMONELLA TYPHIMURIUM, Strain/Indicator: TA97, Metabolic Activation: RAT, LIVER, S-9, AROCLOR 1254, Method: STANDARD PLATE); “inactive; negative” under setting [1]; “inactive; negative” under setting [2]; “inactive; negative” under setting [3]; “inactive; negative” under setting [4]. The mutagenic call is “inactive; negative” under setting [5]; “inactive; negative” (Test System: AMES SALMONELLA TYPHIMURIUM, Strain/Indicator: TA1535, Metabolic Activation: RAT, LIVER, S-9, AROCLOR 1254, Method: STANDARD PLATE); “inactive; negative” under setting [6]; “inactive; negative” (Test System: AMES SALMONELLA TYPHIMURIUM, Strain/Indicator: TA1538, Metabolic Activation: RAT, LIVER, S-9, AROCLOR 1254, Method: STANDARD PLATE); “inactive; negative” (Test System: CHINESE HAMSTER OVARY, Strain/Indicator: CHO-KL-BH4 (HGPRT), Metabolic Activation: NONE); “inactive; negative” (Test System: CHINESE HAMSTER OVARY, Strain/Indicator: CHO-KL-BH4 (HGPRT), Metabolic Activation: RAT, LIVER, S-9, AROCLOR 1254).
